Data published in ChEMBL document CHEMBL4251625, “Efficacy of 2-hydroxy-3-phenylsulfanylmethyl-[1,4]-naphthoquinone derivatives against different Trypanosoma cruzi discrete type units: Identification of a promising hit compound” (Eur J Med Chem, 2018).

Assays:
[1] = Cytotoxicity activity against Swiss Webster mouse primary hepatocytes assessed as reduction in cell viability after 72 hrs by cell-titer-glo assay; format: cell-based, Hepatocyte
[2] = Cytotoxicity activity against African green monkey Vero cells assessed as reduction in cell viability after 72 hrs by cell-titer-glo assay; format: cell-based; details: chlorocebus sabaeus
[3] = system: Trypanosoma cruzi; experiment: Trypanocidal activity against Trypanosoma cruzi Y trypomastigotes infected in monkey LLC-MK2 cells after 24 hrs by cell-titer-glo assay; format: functional, organism-based; details: for IC50: LLC-MK2, 24 h; for IC90: LLC-MK2, in Primates, 24 h
[4] = system: Trypanosoma cruzi; experiment: Trypanocidal activity against infected Swiss Webster mouse derived bloodstream form of Trypanosoma cruzi Y after 24 hrs by cell-titer-glo assay; format: functional, organism-based
[5] = Therapeutic index, ratio of CC50 for African green monkey Vero cells to IC50 for Trypanosoma cruzi Y trypomastigotes infected in monkey LLC-MK2 cells; format: toxicity, cell-based; details: read-out: Ratio CC50/IC50
[6] = Therapeutic index, ratio of CC50 for African green monkey Vero cells to IC50 for infected Swiss Webster mouse derived bloodstream form of Trypanosoma cruzi Y; format: toxicity; details: read-out: Ratio CC50/IC50
[7] = system: Trypanosoma cruzi; experiment: Trypanocidal activity against Trypanosoma cruzi Brazil trypomastigotes infected in monkey LLC-MK2 cells after 24 hrs by luminescent assay; format: functional, organism-based
[8] = system: Trypanosoma cruzi; experiment: Trypanocidal activity against Trypanosoma cruzi CL trypomastigotes infected in monkey LLC-MK2 cells after 24 hrs by luminescent assay; format: functional, organism-based; details: CL Brener
[9] = system: Trypanosoma cruzi; experiment: Trypanocidal activity against Trypanosoma cruzi Dm28c trypomastigotes infected in monkey LLC-MK2 cells after 24 hrs by luminescent assay; format: functional, organism-based
[10] = system: Trypanosoma cruzi; experiment: Trypanocidal activity against Trypanosoma cruzi Dm28c intracellular amastigotes infected in African green monkey Vero cells after 72 hrs; format: functional, organism-based
[11] = Therapeutic index, ratio of CC50 for African green monkey Vero cells to IC50 for Trypanosoma cruzi Dm28c intracellular amastigotes infected in African green monkey Vero cells; format: toxicity, cell-based; details: read-out: Ratio CC50/IC50
[12] = system: Trypanosoma cruzi; experiment: Trypanocidal activity against Trypanosoma cruzi Y intracellular amastigotes infected in Swiss Webster mouse cardiomyocytes after 72 hrs; format: functional, organism-based
[13] = Cytotoxicity against Swiss Webster mouse cardiomyocytes after 72 hrs; set-up: species or system Cardiac Muscle Cell
[14] = Therapeutic index, ratio of CC50 for Swiss Webster mouse cardiomyocytes to IC50 for Trypanosoma cruzi Y intracellular amastigotes infected in Swiss Webster mouse cardiomyocytes; format: toxicity, cell-based; details: read-out: Ratio CC50/IC50

SMILES | CC50 at 72 h [1] [µM] | CC50 at 72 h [2] [µM] | IC50 [3] [µM] | IC90 [3] [µM] | IC50 [4] [µM] | IC90 [4] [µM] | selectivity ratio [5] | selectivity ratio [6] | IC50 ([7]; LLC-MK2, 24 h) [µM] | IC90 ([7]; LLC-MK2, in Primates, 24 h) [µM] | IC50 ([8]; LLC-MK2, 24 h) [µM] | IC90 ([8]; LLC-MK2, in Primates, 24 h) [µM] | IC50 ([9]; LLC-MK2, 24 h) [µM] | IC90 ([9]; LLC-MK2, in Primates, 24 h) [µM] | IC50 [10] [µM] | IC90 [10] [µM] | selectivity ratio [11] | IC50 [12] [µM] | CC50 at 72 h [13] [µM] | selectivity ratio [14]
O=C(Cn1ccnc1[N+](=O)[O-])NCc1ccccc1 [BENZNIDAZOLE] | > 500 | 366 | 29.8 | 68.5 | 18.1 | > 100 | 12.2 | 20.2 | 93.3 | > 100 | 69.3 | > 100 | 24.7 | 92.3 | 4.39 | 24.9 | 83.2 | 1.1 | > 500 | > 455
O=C1C=C(O)C(=O)c2ccccc21 [LAWSONE] | > 500 | 214 | > 100 | > 100 | > 100 | > 100 |  |  |  |  |  |  |  |  | 89 | > 100 | 2.39 |  |  | 
